# Activity calls are given as the source filed them. The calls are words filed in the database; no cut-off is given here.
# Columns and labels:
# BMDC [1] = test: Upregulation of CD86 expression in mouse BMDC cells at 5 to 50 uM measured after 24 hrs in presence of OVAp by flow cytometry analysis; assay type: functional, cell-based; conditions: dose 5-50 µM
# B16-OVA melanoma cell [2] = test: Antitumor activity against mouse B16-OVA melanoma cell xenografted in C57BL/6 mouse assessed as increase in number of memory T cells in spleen at 500 ug, sc in presence of OVAp by flow cytometry analysis; assay type: functional, organism-based; conditions: dose 500.0 µg
# Mus musculus [3] = test: Immuno-adjuvant activity in SV-immunized C57BL/6 mouse assessed as increase in HA-specific IgG1 titer level at 100 ug, sc administered immediately and on day 0, 14 and measured at day 21 by ELISA; assay type: functional, organism-based; conditions: dose 100.0 µg, time 21.0 day
# Mus musculus [4] = species on record: Mus musculus; test: Induction of immune response in OVAp immunized C57BL/6 mouse assessed as increase in number of antigen-specific IFN-gamma+ CD44+ CD8+ T cells in spleen at 100 ug measured after 35 days by flow cytometry analysis; assay type: functional, organism-based; conditions: T-cell, dose 100.0 µg, time 35.0 day
# [5] = Antitumor activity against mouse B16-OVA melanoma cell xenografted in C57BL/6 mouse assessed as fold increase in IFN-gamma+TNF-alpha+ at 500 ug, sc in presence of OVAp by flow cytometry analysis; assay type: functional; conditions: dose 500 µg
# RAW264.7 [6] = test: Induction of apoptosis in mouse RAW264.7 cells assessed as live cells at 16 uM by flow cytometry analysis (reference value: 75.4 %); assay type: functional
# [7] = Upregulation of CD86 expression in mouse BMDC cells assessed as fold increase at 5 to 50 uM measured after 24 hrs in presence of OVAp by flow cytometry analysis; assay type: functional; conditions: dose 5-50 µM
# RAW264.7 [8] = test: Induction of apoptosis in mouse RAW264.7 cells assessed as necrotic cells at 10 uM by flow cytometry analysis (reference value: 20.6 %); assay type: functional
# [9] = Toxicity in C57BL/6 mouse assessed as effect on ALT level in serum at 500 ug measured after 1 day after immunization; conditions: 24 h, dose 500 µg
# [10] = Toxicity in BALB/c mouse assessed as increase in Timp1 expression at 100 to 1000 ug measured after 16 hrs in presence of hemagglutinin; conditions: in vivo, dose 100-1000 µg
# [11] = Toxicity in C57BL/6 mouse assessed as effect on heart at 500 ug, sc by H and E staining based analysis; assay type: organism-based; conditions: in vivo, dose 500 µg
# [12] = Toxicity in C57BL/6 mouse assessed as effect on ALB level in serum at 500 ug measured after 1 day after immunization; conditions: 24 h, dose 500 µg
# RAW264.7 [13] = test: Induction of apoptosis in mouse RAW264.7 cells assessed as apoptotic cells at 4 uM by flow cytometry analysis (reference value: 3.26 %); assay type: functional
# RAW264.7 [14] = test: Induction of apoptosis in mouse RAW264.7 cells assessed as apoptotic cells at 10 uM by flow cytometry analysis (reference value: 3.26 %); assay type: functional
# [15] = Toxicity in C57BL/6 mouse assessed as effect on ALP level in serum at 500 ug measured after 1 day after immunization; conditions: 24 h, dose 500 µg
# RAW264.7 [16] = test: Upregulation of CD86 expression in mouse RAW264.7 cells measured after 24 hrs by flow cytometry analysis; assay type: functional, cell-based; conditions: dose 10-50 µM
# RAW264.7 [17] = test: Induction of apoptosis in mouse RAW264.7 cells assessed as live cells at 4 uM by flow cytometry analysis (reference value: 75.4 %); assay type: functional
# [18] = Toxicity in BALB/c mouse assessed as reduction in platelet count measured after 16 hrs; conditions: dose 100-1000 µg
# B16-OVA melanoma cell [19] = test: Antitumor activity against mouse B16-OVA melanoma cell xenografted in C57BL/6 mouse assessed as at 500 ug administered 5 times for every 2 days from day 9 to 17; assay type: functional, cell-based; conditions: dose 500.0 µg, time 9.0 day
# BMDC [20] = test: Induction of immune response in TLR7 knockout mouse BMDC cells assessed as increase in CXCL10 production at 10 to 100 uM incubated for 24 hrs by ELISA method; assay type: functional, cell-based; conditions: dose 10-100 µM
# RAW264.7 [21] = test: Induction of apoptosis in mouse RAW264.7 cells assessed as necrotic cells at 4 uM by flow cytometry analysis (reference value: 20.6 %); assay type: functional
# [22] = Upregulation of CD86 expression in mouse RAW264.7 cells assessed as fold increase in fluorescence intensity at 20 uM measured after 24 hrs by flow cytometry analysis; assay type: functional
# RAW264.7 [23] = test: Induction of apoptosis in mouse RAW264.7 cells assessed as apoptotic cells at 16 uM by flow cytometry analysis (reference value: 3.26 %); assay type: functional
# RAW264.7 [24] = test: Induction of apoptosis in mouse RAW264.7 cells assessed as necrotic cells at 8 uM by flow cytometry analysis (reference value: 20.6 %); assay type: functional
# RAW264.7 [25] = test: Induction of apoptosis in mouse RAW264.7 cells assessed as apoptotic cells at 8 uM by flow cytometry analysis (reference value: 3.26 %); assay type: functional
# [26] = Toxicity in BALB/c mouse assessed as increase in Mx2 expression at 100 to 1000 ug measured after 16 hrs in presence of hemagglutinin; conditions: in vivo, dose 100-1000 µg
# BMDC [27] = test: Cytotoxicity against mouse BMDC cells at 80 uM incubated for 24 hrs by Celltiter-Glo luminescence assay; assay type: toxicity, cell-based
# [28] = Toxicity in C57BL/6 mouse assessed as effect on body weight at 500 ug measured from day 9 to 21; conditions: in vivo, 312 h, dose 500 µg, time 13 day
# [29] = Toxicity in BALB/c mouse assessed as effect on body weight loss at 1000 ug measured after 16 hrs in presence of hemagglutinin; conditions: in vivo, dose 1000 µg
# [30] = Toxicity in C57BL/6 mouse assessed as effect on liver at 500 ug, sc by H and E staining based analysis; assay type: organism-based; conditions: in vivo, dose 500 µg
# [31] = Toxicity in C57BL/6 mouse assessed as effect on spleen at 500 ug, sc by H and E staining based analysis; assay type: organism-based; conditions: in vivo, dose 500 µg
# [32] = Toxicity in C57BL/6 mouse assessed as effect on glucose level in serum at 500 ug measured after 1 day after immunization; conditions: 24 h, dose 500 µg
# [33] = Toxicity in C57BL/6 mouse assessed as effect on lung at 500 ug, sc by H and E staining based analysis; assay type: organism-based; conditions: in vivo, dose 500 µg
# RAW264.7 [34] = test: Upregulation of CD40 expression in mouse RAW264.7 cells measured after 24 hrs by flow cytometry analysis; assay type: functional, cell-based; conditions: dose 10-50 µM
# BMDC [35] = test: Induction of immune response in TLR7 knockout mouse BMDC cells assessed as increase in MIP-1alpha production at 10 to 100 uM incubated for 24 hrs by ELISA method; assay type: functional, cell-based; conditions: dose 10-100 µM
# RAW264.7 [36] = test: Induction of apoptosis in mouse RAW264.7 cells assessed as necrotic cells at 16 uM by flow cytometry analysis (reference value: 20.6 %); assay type: functional
# BMDC [37] = test: Induction of immune response in TLR7 knockout mouse BMDC cells assessed as increase in IL-6 production at 10 to 100 uM incubated for 24 hrs by ELISA method; assay type: functional, cell-based; conditions: dose 10-100 µM
# BMDC [38] = test: Induction of immune response in TLR7 knockout mouse BMDC cells assessed as increase in IFN-beta production at 10 to 100 uM incubated for 24 hrs by ELISA method; assay type: functional, cell-based; conditions: dose 10-100 µM
smiles,measurement,setting,value
C[C@H](CCC(=O)NCCCCCCCNC(=O)CC[C@@H](C)[C@H]1CC[C@H]2[C@@H]3CC[C@@H]4C[C@H](O)CC[C@]4(C)[C@H]3C[C@H](O)[C@]12C)[C@H]1CC[C@H]2[C@@H]3CC[C@@H]4C[C@H](O)CC[C@]4(C)[C@H]3C[C@H](O)[C@]12C,Activity,BMDC [1],Active
same,Activity,B16-OVA melanoma cell [2],Active
same,Activity,Mus musculus [3],Active
same,Activity,Mus musculus [4],Active
same,fold change (FC),[5],2.8
same,Activity,RAW264.7 [6],63.4%
same,fold change (FC),[7],1.2
same,Activity,RAW264.7 [8],28.6%
same,Activity,[9],Non-Toxic
same,Activity,[10],Non-Toxic
same,Activity,[11],Non-Toxic
same,Activity,[12],Non-Toxic
same,Activity,RAW264.7 [13],2.1%
same,Activity,RAW264.7 [14],2.23%
same,Activity,[15],Non-Toxic
same,Activity,RAW264.7 [16],Dose-Dependent Effect
same,Activity,RAW264.7 [17],77.8%
same,Activity,[18],Dose-Dependent Effect
same,Activity,B16-OVA melanoma cell [19],inactive
same,Activity,BMDC [20],inactive
same,Activity,RAW264.7 [21],19%
same,fold change (FC),[22],2
same,Activity,RAW264.7 [23],0.63%
same,Activity,RAW264.7 [24],36.1%
same,Activity,RAW264.7 [25],1.47%
same,Activity,[26],Non-Toxic
same,Activity,BMDC [27],Non-Toxic
same,Activity,[28],Non-Toxic
same,Activity,[29],Non-Toxic
same,Activity,[30],Non-Toxic
same,Activity,[31],Non-Toxic
same,Activity,[32],Non-Toxic
same,Activity,[33],Non-Toxic
same,Activity,RAW264.7 [34],Dose-Dependent Effect
same,Activity,BMDC [35],inactive
same,Activity,RAW264.7 [36],34%
same,Activity,BMDC [37],inactive
same,Activity,BMDC [38],inactive
